The experiment concerns the target Sodium channel protein type 5 subunit alpha (Homo sapiens, UniProt Q14524). As to the kind of experiment: Inhibition of human Nav1.5 expressed in HEK293 cells assessed as inhibition of sodium current at holding potential of -125 mV measured for 3 to 5 mins by whole cell voltage clamp method.

For orientation: IC50 means the concentration needed to halve the response being measured.

SMILES strings stand for the structures.

Sodium channel protein type 5 subunit alpha, sequence (Q14524 whole entry): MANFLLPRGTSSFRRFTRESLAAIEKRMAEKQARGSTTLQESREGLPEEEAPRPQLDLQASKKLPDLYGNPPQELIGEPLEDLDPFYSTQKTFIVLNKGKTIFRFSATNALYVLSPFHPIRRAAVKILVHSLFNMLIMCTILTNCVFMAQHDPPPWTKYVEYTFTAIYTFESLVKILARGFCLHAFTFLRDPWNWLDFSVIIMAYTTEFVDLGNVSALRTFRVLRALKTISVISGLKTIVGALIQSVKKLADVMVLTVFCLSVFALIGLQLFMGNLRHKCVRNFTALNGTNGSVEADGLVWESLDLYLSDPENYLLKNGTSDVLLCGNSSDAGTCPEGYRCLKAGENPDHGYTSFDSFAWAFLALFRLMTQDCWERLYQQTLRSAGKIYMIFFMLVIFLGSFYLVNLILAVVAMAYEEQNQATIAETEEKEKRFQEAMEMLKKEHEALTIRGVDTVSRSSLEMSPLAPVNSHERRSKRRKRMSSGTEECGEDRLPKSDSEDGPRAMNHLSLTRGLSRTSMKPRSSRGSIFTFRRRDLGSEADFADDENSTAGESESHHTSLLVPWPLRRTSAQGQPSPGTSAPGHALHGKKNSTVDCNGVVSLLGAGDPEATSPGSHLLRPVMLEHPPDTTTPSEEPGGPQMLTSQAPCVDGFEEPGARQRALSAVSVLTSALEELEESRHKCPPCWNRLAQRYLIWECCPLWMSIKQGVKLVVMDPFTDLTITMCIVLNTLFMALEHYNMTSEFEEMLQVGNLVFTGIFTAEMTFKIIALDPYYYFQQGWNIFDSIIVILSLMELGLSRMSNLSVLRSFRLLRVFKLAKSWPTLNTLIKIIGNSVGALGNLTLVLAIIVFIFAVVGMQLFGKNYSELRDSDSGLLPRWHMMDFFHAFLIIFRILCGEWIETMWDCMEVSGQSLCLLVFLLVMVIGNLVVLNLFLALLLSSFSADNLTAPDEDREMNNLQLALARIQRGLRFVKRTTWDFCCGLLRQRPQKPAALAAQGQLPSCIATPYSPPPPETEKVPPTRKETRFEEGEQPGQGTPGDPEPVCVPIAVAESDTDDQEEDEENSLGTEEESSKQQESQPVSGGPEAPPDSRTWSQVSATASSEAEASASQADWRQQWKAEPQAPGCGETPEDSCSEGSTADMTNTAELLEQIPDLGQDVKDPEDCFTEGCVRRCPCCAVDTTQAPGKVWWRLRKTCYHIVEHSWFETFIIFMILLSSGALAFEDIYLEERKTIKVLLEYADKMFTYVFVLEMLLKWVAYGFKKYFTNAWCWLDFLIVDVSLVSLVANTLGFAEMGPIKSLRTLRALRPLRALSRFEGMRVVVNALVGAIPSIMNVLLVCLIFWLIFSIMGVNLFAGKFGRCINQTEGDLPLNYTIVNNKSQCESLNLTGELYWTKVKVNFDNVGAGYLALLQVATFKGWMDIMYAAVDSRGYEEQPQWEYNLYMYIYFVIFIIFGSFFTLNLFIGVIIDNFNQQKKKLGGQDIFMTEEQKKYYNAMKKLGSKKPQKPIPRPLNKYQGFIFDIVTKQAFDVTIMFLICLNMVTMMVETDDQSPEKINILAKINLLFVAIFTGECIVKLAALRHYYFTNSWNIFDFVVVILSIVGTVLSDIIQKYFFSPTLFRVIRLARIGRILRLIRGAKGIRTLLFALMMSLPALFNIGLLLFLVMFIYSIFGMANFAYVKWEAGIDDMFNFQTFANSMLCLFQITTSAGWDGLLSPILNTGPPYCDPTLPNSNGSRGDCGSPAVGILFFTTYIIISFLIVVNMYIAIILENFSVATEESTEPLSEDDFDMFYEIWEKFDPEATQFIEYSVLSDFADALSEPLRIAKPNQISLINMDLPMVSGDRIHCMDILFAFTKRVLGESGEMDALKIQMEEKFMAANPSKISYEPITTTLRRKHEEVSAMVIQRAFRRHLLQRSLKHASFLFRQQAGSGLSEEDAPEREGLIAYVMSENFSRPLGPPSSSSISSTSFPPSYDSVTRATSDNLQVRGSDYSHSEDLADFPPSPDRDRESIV

For `COc1cc(C(F)(F)F)ccc1-c1n[nH]c(=O)c2cc(S(=O)(=O)Nc3nccs3)ccc12` [US9012443, 293], the IC50 was greater than 30 µM.

With `COc1cc(C(F)(F)F)ccc1-c1cnnc2cc(S(=O)(=O)Nc3nccs3)ccc12` [US9012443, 259], the IC50 is greater than 30 µM.

Values taken from BindingDB's records for doi:10.1021/acsmedchemlett.6b00243 (Amgen, 2016).
